Structures are written as SMILES. Where two headings read alike, the source gives them in different places.

Assay type in all cases: in vivo
For one experiment, the system named is Chilo suppressalis. The experiment in a line: Insecticidal activity against Chilo suppressalis (spray on rice seedlings, stems fed to larvae). Here is the method:
(§1) The compound to be tested was dissolved by a mixed solvent of acetone/methanol (1:1), and then diluted by water containing 0.1% (wt) Tween 80 to the required concentration.
(§2) An Airbrush spray method was adopted for the determination of the activity, with armyworm, Plutella xylostella and Chilo suppressalis as targets.
Determination method: 1) preparation of rice seedlings: rice was cultivated in small plastic cups (diameter: 4.5 cm and height: 4 cm) at a constant temperature room (temperature: 26-28° C., relative humidity: 60-80% around and illumination: 16 hL:8 hD), after the rice grew to a 4-5 leaf stage, vigorous and uniform-growth rice seedlings were selected and treated with an insecticide, 3 repeats for each treatment. 2) Preparation of pests for test: 3rd-instar larvaes of Chilo suppressalis fed continuously in the room. 3) Inoculation of pests on rice stems by spray. The whole plants of the rice seedlings were sprayed by a spray method uniformly, with the dose of 15 ml for each treatment. The blank control was treated first, and the above operation was repeated in an order of lower to higher test concentration. After sprayed, rice seedlings were placed in the shade to dry the insecticide liquor, and then stalks about 5 cm above the basal part of the stems were cut to be fed to the pests for test. Glass petri dishes (diameter: […]) were prepared, cushioned by filter paper at the bottom thereof, and subjected to water addition for moisturizing; about 20 pieces of rice stems were put in each dish and inoculated with 10 larvaes; then the petri dishes were closed by non-woven fabrics and placed in a constant temperature room for culture. The number of survivals was surveyed 3 d after administration.

A further experiment relates to Plutella xylostella. Kind of experiment: Insecticidal activity against Plutella xylostella (Airbrush spray on cabbage leaf discs). As for the experimental part:
as §1, §2
Determination method: cabbage blades were punched into 2 cm (diameter) leaf discs by a puncher; with the pressure of Airbrush spray being 10 psi (about 0.7 kg/cm^2), both sides of each leaf disc were sprayed with the amount of 0.5 ml. After dried in the shade, each leaf disc was inoculated with 10 3rd-instar larvaes, 3 repeats for each leaf disc. And then, the treated leaf discs were put into an observation room (25° C., relative humidity: 60-70%) for cultivation; the number of the survivals was surveyed 1 d, 2 d and 3 d after administration, and then the death rate was calculated.

Another experiment deals with armyworm. The experiment in a line: Insecticidal activity against armyworm (Airbrush spray on maize blade segments). The settings on record: 72 h, read-out: fatality rate against armyworm. As for the experimental part: as §1, §2
Determination method: maize blades were cut into 2 cm (length) segments; with the pressure of Airbrush spray being 10 psi (about 0.7 kg/cm^2), both sides of each blade segment were sprayed with the amount of 0.5 ml. After dried in the shade, each segment was inoculated with 10 3rd-instar larvaes, 3 repeats for each segment. And then, the treated segments were put into an observation room (25° C., relative humidity: 60-70%) for cultivation; the number of the survivals was surveyed 1 d, 2 d and 3 d after administration, and then the death rate was calculated.

Where [1] appears, read: Chilo suppressalis, 72 h, 4 mg/L, survivals surveyed 3 d after administration, read-out: fatality rate against Chilo suppressalis.
[2] abbreviates: Chilo suppressalis, 72 h, 40 mg/L, survivals surveyed 3 d after administration, read-out: fatality rate against Chilo suppressalis.
[3] abbreviates: Plutella xylostella, foliar, 72 h, 1 mg/L, 3 d after administration, read-out: fatality rate against Plutella xylostella.
[4] abbreviates: Plutella xylostella, foliar, 72 h, Table 71, 10 mg/L, 3 d after administration, read-out: Fatality rate (%, 3 d after administration) 10 mg/L.
The mark [5] stands for this setting: 0.1 mg/L, 3 d after administration, 3rd-instar larvae.
Setting [6] is: 0.5 mg/L, 3 d after administration, 3rd-instar larvae.
Setting [7] is: Chilo suppressalis, 72 h, read-out: fatality rate against Chilo suppressalis.
The mark [8] stands for this setting: Plutella xylostella, foliar, 72 h, read-out: Fatality rate (%, 3 d after administration) 0.5 mg/L, Table 73, 0.5 mg/L, 3 d after administration.
Where [9] appears, read: Plutella xylostella, foliar, 72 h, read-out: Fatality rate (%, 3 d after administration) 1 mg/L, Table 73, 1 mg/L, 3 d after administration.
[10] abbreviates: Plutella xylostella, foliar, 72 h, read-out: Fatality rate (%, 3 d after administration) 10 mg/L, Table 71, 10 mg/L, 3 d after administration.
Where [11] appears, read: Plutella xylostella, foliar, 72 h, read-out: fatality rate against Plutella xylostella, 0.5 mg/L, 3 d after administration.
Setting [12] is: Plutella xylostella, foliar, 72 h, read-out: fatality rate against Plutella xylostella, 1 mg/L, 3 d after administration.

Regarding `N#CCN(C(=O)c1cccc(NC(=O)c2ccccc2)c1F)c1c(Cl)cc(C(F)(C(F)(F)F)C(F)(F)F)cc1Cl` [Compound 17.321], in the experiment with Chilo suppressalis (setting [1]), the pest or weed control at 4 µg/mL was no less than 90%. Further, the pest or weed control at 40 µg/mL in the experiment on Chilo suppressalis (setting [2]) was no less than 90%. Further, the pest or weed control at 1 µg/mL in the experiment with Plutella xylostella (setting [3]) is no less than 90%. Besides, the pest or weed control at 10 µg/mL with Plutella xylostella (setting [4]) came to 100%. The pest or weed control at 0.1 µg/mL with armyworm (setting [5]) was no less than 90%. Moreover, in the experiment with armyworm (setting [6]), the pest or weed control at 0.5 µg/mL was no less than 90%.
On to `Cc1cc(C(F)(C(F)(F)F)C(F)(F)F)cc(Br)c1N(CC#N)C(=O)c1cccc(NC(=O)c2ccccc2)c1F` [Compound 20.321], for which the pest or weed control at 40 µg/mL with Chilo suppressalis (setting [2]) was no less than 90%. Moreover, the pest or weed control at 1 µg/mL in the experiment with Plutella xylostella (setting [3]) is no less than 90%; in the experiment with Plutella xylostella (Plutella xylostella, foliar, 72 h, Table 72, 1 mg/L, 3 d after administration, read-out: Fatality rate (%, 3 d after administration) 1 mg/L), 93.9%. For the same molecule, the pest or weed control at 10 µg/mL in the experiment on Plutella xylostella (setting [4]) is 100%. Also, the “Fatality rate (%, 3 d after administration) 5 mg/L” value in the experiment with Plutella xylostella (Table 72, 5 mg/L, 3 d after administration) came out at 100%. Moreover, the pest or weed control at 0.5 µg/mL with armyworm (setting [6]) is no less than 90%.
As to `N#CCN(C(=O)c1cccc(NC(=O)c2ccccc2)c1F)c1c(Cl)cc(C(F)(C(F)(F)F)C(F)(F)F)cc1Br` [Compound 21.321], the pest or weed control at 4 µg/mL in the experiment on Chilo suppressalis (setting [1]) is no less than 90%. In the experiment on Chilo suppressalis (setting [2]), the pest or weed control at 40 µg/mL was no less than 90%. Also, in the experiment with Plutella xylostella (setting [3]), the pest or weed control at 1 µg/mL was no less than 90%. Moreover, the pest or weed control at 10 µg/mL with Plutella xylostella (setting [4]) worked out at 100%. The pest or weed control at 0.1 µg/mL with armyworm (setting [5]) was no less than 90%. Moreover, the pest or weed control at 0.5 µg/mL in the experiment on armyworm (setting [6]) is no less than 90%.
For the molecule `CN(C(=O)c1ccccc1)c1cccc(C(=O)N(CC#N)c2c(Br)cc(C(F)(C(F)(F)F)C(F)(F)F)cc2Br)c1F` [Compound 30.321], the pest or weed control at 1 µg/mL is no less than 90% with Chilo suppressalis (setting [7]), 100% with Plutella xylostella (setting [9]) and no less than 90% with Plutella xylostella (setting [12]). In addition, the pest or weed control at 4 µg/mL in the experiment with Chilo suppressalis (setting [7]) was no less than 90%. Besides, in the experiment with Chilo suppressalis (setting [7]), the pest or weed control at 40 µg/mL is no less than 90%. Besides, the “Fatality rate (%, 3 d after administration) 1.25 mg/L” value in the experiment with Chilo suppressalis (Table 77, 1.25 mg/L, 3 d after administration) is on record as 93.5%. The “Fatality rate (%, 3 d after administration) 2.5 mg/L” value in the experiment with Chilo suppressalis (Table 77, 2.5 mg/L, 3 d after administration) was 100%. Besides, the “Fatality rate (%, 3 d after administration) 5 mg/L” value in the experiment with Chilo suppressalis (Table 77, 5 mg/L, 3 d after administration) is 100%. Moreover, the pest or weed control at 0.5 µg/mL was 100% in the experiment with Plutella xylostella (setting [8]); 100% with Plutella xylostella (Plutella xylostella, foliar, 72 h, read-out: Fatality rate (%, 3 d after administration) 0.5 mg/L, Table 74, 0.5 mg/L, 3 d after administration); no less than 90% in the experiment with Plutella xylostella (setting [11]); no less than 90% in the experiment with armyworm. For the same molecule, the pest or weed control at 10 µg/mL in the experiment with Plutella xylostella (setting [10]) stood at 100%. The pest or weed control at 0.05 µg/mL in the experiment with Plutella xylostella (Plutella xylostella, foliar, 72 h, read-out: fatality rate against Plutella xylostella, 0.05 mg/L, 3 d after administration) was no less than 90%; in the experiment on armyworm it was no less than 90%. For the same molecule, the “Fatality rate (%, 3 d after administration) 0.05 mg/L” value in the experiment on Plutella xylostella (Table 74, 0.05 mg/L, 3 d after administration) was 100%. Further, the “Fatality rate (%) 1 d after administration” value in the experiment on Plutella xylostella (Table 75, fast-acting efficacy, dose 0.5 mg/L, 1 d after administration) is reported as 90%. For the same molecule, the “Fatality rate (%) 2 d after administration” value with Plutella xylostella (Table 75, fast-acting efficacy, dose 0.5 mg/L, 2 d after administration) is recorded as 100%. Moreover, in the experiment with Plutella xylostella (Table 75, fast-acting efficacy, dose 0.5 mg/L, 3 d after administration), the “Fatality rate (%) 3 d after administration” value amounted to 100%. Moreover, in the experiment with armyworm, the pest or weed control at 0.1 µg/mL is no less than 90%.
With `N#CCN(C(=O)c1ccccc1)c1cccc(C(=O)N(CC#N)c2c(Br)cc(C(F)(C(F)(F)F)C(F)(F)F)cc2Br)c1F` [Compound 58.321], the pest or weed control at 4 µg/mL in the experiment with Chilo suppressalis (setting [7]) was no less than 90%. The pest or weed control at 40 µg/mL in the experiment on Chilo suppressalis (setting [7]) was no less than 90%. In addition, the values for the pest or weed control at 0.5 µg/mL in the experiment on Plutella xylostella (setting [8]), in the experiment on Plutella xylostella (setting [11]) and with armyworm were 98%, no less than 90% and no less than 90%, respectively. The results for the pest or weed control at 1 µg/mL in the experiment with Plutella xylostella (setting [9]) and with Plutella xylostella (setting [12]) were 100% and no less than 90%, respectively. The pest or weed control at 10 µg/mL in the experiment with Plutella xylostella (setting [10]) stood at 100%. The pest or weed control at 0.1 µg/mL in the experiment on armyworm is no less than 90%.

The values are drawn from patent publication US11407711B2, “Benzamide compound and use thereof” (METISA BIOTECHNOLOGY CO., LTD., priority 2018, dated 2022).
